Measurements taken from US20230022400A1, “IMMUNOMODULATORS” (Bristol-Myers Squibb Company, priority 2019, published 2023).
Where a SMILES comes first, the peptide text is derived from it. Bridges are numbered along the chain shown (N, C = ends). [ ]: non-standard residue; d: D form. The star is where a group is joined. Trp(1-CH2CO2Me) = COC(=O)Cn1cc(C[C@H](N)C(=O)O)c2ccccc21; Trp(1-CH2COOH) = N[C@@H](Cc1cn(CC(=O)O)c2ccccc12)C(=O)O; X19 = c1ccc(N2CCN(c3ncnc(*)n3)CC2)cc1; Hyp = O=C(O)[C@@H]1C[C@@H](O)CN1; NMeNle = CCCC[C@H](NC)C(=O)O; X18 = c1ccc(-c2ccnc(*)n2)cc1; NMeA = CN[C@@H](C)C(=O)O; Dab = NCC[C@H](N)C(=O)O; Dap = NC[C@H](N)C(=O)O; X6 = c1ccc2nc(*)cnc2c1; X1 = c1ccc2sc(*)nc2c1; X11 = COc1ccnc(*)n1; X12 = Brc1cnc(*)nc1; X3 = N#Cc1ccc(*)nc1; X15 = c1cnc(*)cn1

target: T1, PD-1/PD-L1 interaction (PD-1-Ig / PD-L1-His) (Homo sapiens, UniProt Q9NZQ7); test: PD-1/PD-L1 Homogenous Time-Resolved Fluorescence (HTRF) binding assay; details: PD-L1-His 10 nM final, PD-1-Ig 20 nM final; inhibitors pre-incubated with PD-L1-His for 15 m
T1 construct: TVMV protease site (linker) (C); made in house; host or cells: HEK293T cells
T1 sequence (Q9NZQ7 18-239): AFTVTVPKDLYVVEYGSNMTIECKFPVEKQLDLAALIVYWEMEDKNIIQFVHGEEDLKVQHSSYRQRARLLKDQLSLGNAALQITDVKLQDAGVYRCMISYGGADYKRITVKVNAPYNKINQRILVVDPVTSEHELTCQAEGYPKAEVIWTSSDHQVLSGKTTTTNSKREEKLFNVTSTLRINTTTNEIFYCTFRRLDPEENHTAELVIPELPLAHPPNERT
Source text: The ability of the compounds of formula (I) to bind to PD-L1 was investigated using a PD-1/PD-L1 Homogenous Time-Resolved Fluorescence (HTRF) binding assay.
The interaction of PD-1 and PD-L1 can be assessed using soluble, purified preparations of the extracellular domains of the two proteins. The PD-1 and PD-L1 protein extracellular domains were expressed as fusion proteins with detection tags, for PD-1, the tag was the Fc portion of Immunoglobulin (PD-1-Ig) and for PD-L1 it was the 6 histidine motif (PD-L1-His). All binding studies were performed in an HTRF assay buffer consisting of dPBS supplemented with 0.1% […] bovine serum albumin and 0.05% (v/v) Tween-20. For the h/PD-L1-His binding assay, inhibitors were pre-incubated with PD-L1-His (10 nM final) for 15 m in 4 μl of assay buffer, followed by addition of PD-1-Ig (20 nM final) in 1 μl of assay buffer and further incubation for 15 m. HTRF detection was achieved using europium crypate-labeled anti-Ig (1 nM final) and allophycocyanin (APC) labeled anti-His (20 nM final). Antibodies were diluted in HTRF detection buffer and 5 μl was dispensed on top of the binding reaction. The reaction mixture was allowed to equilibrate for 30 minutes and the resulting signal (665 nm/620 nm ratio) was obtained using an EnVision fluorometer. Additional binding assays were established between the human proteins PD-1-Ig/PD-L2-His (20 & 5 nM, respectively) and CD80-His/PD-L1-Ig (100 & 10 nM, respectively).
Recombinant Proteins: Human PD-1 (25-167) with a C-terminal human Fc domain of immunoglobulin G (Ig) epitope tag [hPD-1 (25-167)-3S-IG] and human PD-L1 (18-239) with a C-terminal His epitope tag [hPD-L1(18-239)-TVMV-His] were expressed in HEK293T cells and purified sequentially by ProteinA affinity chromatography and size exclusion chromatography. Human PD-L2-His and CD80-His was obtained through commercial sources.
Table 1 lists the IC50 values for representative examples of this disclosure measured in the PD-1/PD-L1 Homogenous Time-Resolved Fluorescence (HTRF) binding assay.

Row | IC50 [nM] | Compound
1 | 5.4 | CCCC[C@H]1C(=O)N(C)[C@@H](CCCC)C(=O)N[C@@H](CC(C)C)C(=O)N[C@H](C(=O)NCC(N)=O)CSCC(=O)N[C@@H](Cc2ccc(O)cc2)C(=O)N(C)[C@@H](C)C(=O)N[C@@H](CC(N)=O)C(=O)N2CCC[C@H]2C(=O)N[C@@H](CNc2nccc(OC)n2)C(=O)N[C@@H](CC(C)C)C(=O)N2C[C@H](O)C[C@H]2C(=O)N[C@@H](Cc2c[nH]c3ccccc23)C(=O)N[C@@H](CCN)C(=O)N[C@@H](Cc2cn(CC(=O)O)c3ccccc23)C(=O)N1C [Compound 1001] ({CH2CO}-Y[NMeA]NP[Dap](X11)L[Hyp]W[Dab][Trp(1-CH2COOH)][NMeNle][NMeNle]LCG-NH2; thioether N-14)
2 | 4.5 | CCCC[C@H]1C(=O)N(C)[C@@H](CCCC)C(=O)N[C@@H](CC(C)C)C(=O)N[C@H](C(=O)NCC(N)=O)CSCC(=O)N[C@@H](Cc2ccc(O)cc2)C(=O)N(C)[C@@H](C)C(=O)N[C@@H](CC(N)=O)C(=O)N2CCC[C@H]2C(=O)N[C@@H](CNc2ccc(C#N)cn2)C(=O)N[C@@H](CC(C)C)C(=O)N2C[C@H](O)C[C@H]2C(=O)N[C@@H](Cc2c[nH]c3ccccc23)C(=O)N[C@@H](CCNc2ccc(C#N)cn2)C(=O)N[C@@H](Cc2cn(CC(=O)O)c3ccccc23)C(=O)N1C [Compound 1002] ({CH2CO}-Y[NMeA]NP[Dap](X3)L[Hyp]W[Dab](X3)[Trp(1-CH2COOH)][NMeNle][NMeNle]LCG-NH2; thioether N-14)
3 | 8.3 | CCCC[C@H]1C(=O)N(C)[C@@H](CCCC)C(=O)N[C@@H](CC(C)C)C(=O)N[C@H](C(=O)NCC(N)=O)CSCC(=O)N[C@@H](Cc2ccc(O)cc2)C(=O)N(C)[C@@H](C)C(=O)N[C@@H](CC(N)=O)C(=O)N2CCC[C@H]2C(=O)N[C@@H](CNc2nccc(-c3ccccc3)n2)C(=O)N[C@@H](CC(C)C)C(=O)N2C[C@H](O)C[C@H]2C(=O)N[C@@H](Cc2c[nH]c3ccccc23)C(=O)N[C@@H](CCNc2nccc(-c3ccccc3)n2)C(=O)N[C@@H](Cc2cn(CC(=O)O)c3ccccc23)C(=O)N1C [Compound 1003] ({CH2CO}-Y[NMeA]NP[Dap](X18)L[Hyp]W[Dab](X18)[Trp(1-CH2COOH)][NMeNle][NMeNle]LCG-NH2; thioether N-14)
4 | 5.1 | CCCC[C@H]1C(=O)N(C)[C@@H](CCCC)C(=O)N[C@@H](CC(C)C)C(=O)N[C@H](C(=O)NCC(N)=O)CSCC(=O)N[C@@H](Cc2ccc(O)cc2)C(=O)N(C)[C@@H](C)C(=O)N[C@@H](CC(N)=O)C(=O)N2CCC[C@H]2C(=O)N[C@@H](CNc2cnccn2)C(=O)N[C@@H](CC(C)C)C(=O)N2C[C@H](O)C[C@H]2C(=O)N[C@@H](Cc2c[nH]c3ccccc23)C(=O)N[C@@H](CCNc2cnccn2)C(=O)N[C@@H](Cc2cn(CC(=O)O)c3ccccc23)C(=O)N1C [Compound 1004] ({CH2CO}-Y[NMeA]NP[Dap](X15)L[Hyp]W[Dab](X15)[Trp(1-CH2COOH)][NMeNle][NMeNle]LCG-NH2; thioether N-14)
5 | 11 | CCCC[C@H]1C(=O)N(C)[C@@H](CCCC)C(=O)N[C@@H](CC(C)C)C(=O)N[C@H](C(=O)NCC(N)=O)CSCC(=O)N[C@@H](Cc2ccc(O)cc2)C(=O)N(C)[C@@H](C)C(=O)N[C@@H](CC(N)=O)C(=O)N2CCC[C@H]2C(=O)N[C@@H](CNc2cnccn2)C(=O)N[C@@H](CC(C)C)C(=O)N2C[C@H](O)C[C@H]2C(=O)N[C@@H](Cc2c[nH]c3ccccc23)C(=O)N[C@@H](CCN)C(=O)N[C@@H](Cc2cn(CC(=O)O)c3ccccc23)C(=O)N1C [Compound 1005] ({CH2CO}-Y[NMeA]NP[Dap](X15)L[Hyp]W[Dab][Trp(1-CH2COOH)][NMeNle][NMeNle]LCG-NH2; thioether N-14)
6 | 11 | CCCC[C@H]1C(=O)N(C)[C@@H](CCCC)C(=O)N[C@@H](CC(C)C)C(=O)N[C@H](C(=O)NCC(N)=O)CSCC(=O)N[C@@H](Cc2ccc(O)cc2)C(=O)N(C)[C@@H](C)C(=O)N[C@@H](CC(N)=O)C(=O)N2CCC[C@H]2C(=O)N[C@@H](CNc2nccc(-c3ccccc3)n2)C(=O)N[C@@H](CC(C)C)C(=O)N2C[C@H](O)C[C@H]2C(=O)N[C@@H](Cc2c[nH]c3ccccc23)C(=O)N[C@@H](CCN)C(=O)N[C@@H](Cc2cn(CC(=O)O)c3ccccc23)C(=O)N1C [Compound 1006] ({CH2CO}-Y[NMeA]NP[Dap](X18)L[Hyp]W[Dab][Trp(1-CH2COOH)][NMeNle][NMeNle]LCG-NH2; thioether N-14)
7 | 9.8 | CCCC[C@H]1C(=O)N(C)[C@@H](CCCC)C(=O)N[C@@H](CC(C)C)C(=O)N[C@H](C(=O)NCC(N)=O)CSCC(=O)N[C@@H](Cc2ccc(O)cc2)C(=O)N(C)[C@@H](C)C(=O)N[C@@H](CC(N)=O)C(=O)N2CCC[C@H]2C(=O)N[C@@H](CNc2ncnc(N3CCN(c4ccccc4)CC3)n2)C(=O)N[C@@H](CC(C)C)C(=O)N2C[C@H](O)C[C@H]2C(=O)N[C@@H](Cc2c[nH]c3ccccc23)C(=O)N[C@@H](CCNc2ncnc(N3CCN(c4ccccc4)CC3)n2)C(=O)N[C@@H](Cc2cn(CC(=O)O)c3ccccc23)C(=O)N1C [Compound 1009] ({CH2CO}-Y[NMeA]NP[Dap](X19)L[Hyp]W[Dab](X19)[Trp(1-CH2COOH)][NMeNle][NMeNle]LCG-NH2; thioether N-14)
8 | 4.9 | CCCC[C@H]1C(=O)N(C)[C@@H](CCCC)C(=O)N[C@@H](CC(C)C)C(=O)N[C@H](C(=O)NCC(N)=O)CSCC(=O)N[C@@H](Cc2ccc(O)cc2)C(=O)N(C)[C@@H](C)C(=O)N[C@@H](CC(N)=O)C(=O)N2CCC[C@H]2C(=O)N[C@@H](CNc2ncc(Br)cn2)C(=O)N[C@@H](CC(C)C)C(=O)N2C[C@H](O)C[C@H]2C(=O)N[C@@H](Cc2c[nH]c3ccccc23)C(=O)N[C@@H](CCNc2ncc(Br)cn2)C(=O)N[C@@H](Cc2cn(CC(=O)O)c3ccccc23)C(=O)N1C [Compound 1010] ({CH2CO}-Y[NMeA]NP[Dap](X12)L[Hyp]W[Dab](X12)[Trp(1-CH2COOH)][NMeNle][NMeNle]LCG-NH2; thioether N-14)
9 | 4 | CCCC[C@H]1C(=O)N(C)[C@@H](CCCC)C(=O)N[C@@H](CC(C)C)C(=O)N[C@H](C(=O)NCC(N)=O)CSCC(=O)N[C@@H](Cc2ccc(O)cc2)C(=O)N(C)[C@@H](C)C(=O)N[C@@H](CC(N)=O)C(=O)N2CCC[C@H]2C(=O)N[C@@H](CNc2nc3ccccc3s2)C(=O)N[C@@H](CC(C)C)C(=O)N2C[C@H](O)C[C@H]2C(=O)N[C@@H](Cc2c[nH]c3ccccc23)C(=O)N[C@@H](CCN)C(=O)N[C@@H](Cc2cn(CC(=O)O)c3ccccc23)C(=O)N1C [Compound 11001] ({CH2CO}-Y[NMeA]NP[Dap](X1)L[Hyp]W[Dab][Trp(1-CH2COOH)][NMeNle][NMeNle]LCG-NH2; thioether N-14)
10 | 4.5 | CCCC[C@H]1C(=O)N(C)[C@@H](CCCC)C(=O)N[C@@H](CC(C)C)C(=O)N[C@H](C(=O)NCC(N)=O)CSCC(=O)N[C@@H](Cc2ccc(O)cc2)C(=O)N(C)[C@@H](C)C(=O)N[C@@H](CC(N)=O)C(=O)N2CCC[C@H]2C(=O)N[C@@H](CNc2nc3ccccc3s2)C(=O)N[C@@H](CC(C)C)C(=O)N2C[C@H](O)C[C@H]2C(=O)N[C@@H](Cc2c[nH]c3ccccc23)C(=O)N[C@@H](CCNc2nc3ccccc3s2)C(=O)N[C@@H](Cc2cn(CC(=O)O)c3ccccc23)C(=O)N1C [Compound 11002] ({CH2CO}-Y[NMeA]NP[Dap](X1)L[Hyp]W[Dab](X1)[Trp(1-CH2COOH)][NMeNle][NMeNle]LCG-NH2; thioether N-14)
11 | 7.1 | CCCC[C@H]1C(=O)N(C)[C@@H](CCCC)C(=O)N[C@@H](CC(C)C)C(=O)N[C@H](C(=O)NCC(N)=O)CSCC(=O)N[C@@H](Cc2ccc(O)cc2)C(=O)N(C)[C@@H](C)C(=O)N[C@@H](CC(N)=O)C(=O)N2CCC[C@H]2C(=O)N[C@@H](CNc2cnc3ccccc3n2)C(=O)N[C@@H](CC(C)C)C(=O)N2C[C@H](O)C[C@H]2C(=O)N[C@@H](Cc2c[nH]c3ccccc23)C(=O)N[C@@H](CCN)C(=O)N[C@@H](Cc2cn(CC(=O)O)c3ccccc23)C(=O)N1C [Compound 11003] ({CH2CO}-Y[NMeA]NP[Dap](X6)L[Hyp]W[Dab][Trp(1-CH2COOH)][NMeNle][NMeNle]LCG-NH2; thioether N-14)
12 | 5.6 | CCCC[C@H]1C(=O)N(C)[C@@H](CCCC)C(=O)N[C@@H](CC(C)C)C(=O)N[C@H](C(=O)NCC(N)=O)CSCC(=O)N[C@@H](Cc2ccc(O)cc2)C(=O)N(C)[C@@H](C)C(=O)N[C@@H](CC(N)=O)C(=O)N2CCC[C@H]2C(=O)N[C@@H](CNc2nc3ccccc3s2)C(=O)N[C@@H](CC(C)C)C(=O)N2C[C@H](O)C[C@H]2C(=O)N[C@@H](Cc2c[nH]c3ccccc23)C(=O)N[C@@H](CCN)C(=O)N[C@@H](Cc2cn(CC(=O)OC)c3ccccc23)C(=O)N1C [Compound 11004] ({CH2CO}-Y[NMeA]NP[Dap](X1)L[Hyp]W[Dab][Trp(1-CH2CO2Me)][NMeNle][NMeNle]LCG-NH2; thioether N-14)
